Measured values reported in patent US11311609B2, “Regulating chimeric antigen receptors” (DANA-FARBER CANCER INSTITUTE, INC., priority 2017, dated 2022).

How the values were obtained:
Assay type in all cases: cell-based
FKBP* = biological target: T1, FKBP* (Homo sapiens, UniProt P62942, F37V); assay: Immunoblot of FKBP* degradation in 293FT cells (CRBN-WT or CRBN-/-); details: 293FT CRBN-WT; pretreated two hours with 1 uM Carfilzomib, 0.5 uM MLN4924 or 10 uM Lenalidomide, then 4 hour dFKBP13
T1 construct: HA; expressed in transfected cells; host or cells: 293FT cells (CRBN-WT or CRBN-/-)
T1 sequence (P62942 whole entry F37V): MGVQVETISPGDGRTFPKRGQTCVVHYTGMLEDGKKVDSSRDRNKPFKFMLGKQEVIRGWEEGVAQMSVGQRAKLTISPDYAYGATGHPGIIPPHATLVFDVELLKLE
Procedure: FIG. 6 is an immunoblot of cells treated with bi-functional molecules described in the present invention. As described in Example 3, 293FT cells (CRBN-WT or CRBN−/−) expressing either HA-tagged FKBP12WT or FKBP* (also referred to as dFKBP12* herein) were treated with indicated concentrations of dFKBP7 for 4 hours.
FIG. 8 is an immunoblot of cells treated with heterobifunctional compounds described in the present invention. Isogenic 293FT cells (CRBN-WT or CRBN−/−) expressing either FKBP12WT or FKBP* were treated with 100 nM of either dFKBP7 or dFKBP13 for 4 hours (Example 5).
FIG. 9 is an immunoblot of cells treated with heterobifunctional compounds described in the present invention. Isogenic 293FT cells (CRBN-WT or CRBN−/−) expressing HA-tagged FKBP* were treated with the indicated dose of dFKBP13 for 4 hours (Example 6).
FIG. 11 is an immunoblot of cells treated with heterobifunctional compounds described in the present invention. 293FT cells (CRBN-WT) expressing FKBP* were pretreated with 1 uM Carfilzomib (proteasome inhibitor), 0.5 uM MLN4924 (neddylation inhibitor), and 10 uM Lenalidomide (CRBN binding ligand) for two hours prior to a 4 hour treatment with dFKBP13 (Example 8). Degradation of HA-tagged FKBP* by dFKBP13 was rescued by the proteasome inhibitor Carfilzomib, establishing a requirement for proteasome function.
The dTAG is predicated on the selectivity of FKBP* specific ligands over endogenous, wild type FKBP. In 293T cells expressing wild type FKBP12 or FKBP*, dFKBP7 induces targeted degradation only in FKBP* expressing cells. An immunoblot of cells treated with bi-functional molecules described in the present invention was performed. 293FT cells (CRBN-WT or CRBN−/−) expressing either HA-tagged FKBP12WT or FKBP* were treated with indicated concentrations of dFKBP7 for 4 hours.
In 293T cells expressing wild type FKBP12 or FKBP*, treatment with dFKBP7 and dFKBP13 induces targeted degradation only in FKBP* expressing cells. Isogenic 293FT cells (CRBN-WT or CRBN−/−) were engineered to express either FKBP12WT or FKBP*. Cells were treated with 100 nM of either dFKBP7 or dFKBP13 for 4 hours before lysates were prepared for western immunoblot analysis.
In an effort to define the optimal concentration of dFKB13 heterobifunctional compounds to induce degradation of FKBP*, degradation was measured upon treatment with increasing concentrations of dFKBP13. Isogenic 293FT cells (CRBN-WT or CRBN−/−) were engineered to expressed HA-tagged FKBP*. Cells were treated with the indicated dose of dFKBP13 for 4 hours before lysates were prepared for western immunoblot analysis.
293FT cells (CRBN-WT) were engineered to express FKBP*. Cells were pretreated with 1 uM Carfilzomib (proteasome inhibitor), 0.5 uM MLN4924 (neddylation inhibitor), and 10 uM Lenalidomide (CRBN binding ligand) for two hours prior to a 4-hour treatment with dFKBP13. Lysates were prepared and western immunoblot analysis performed. Degradation of HA-tagged FKBP* by dFKBP13 was rescued by the proteasome inhibitor Carfilzomib, establishing a requirement for proteasome function.

[1] = test system: KRAS signaling (pMEK and pAKT); assay: Immunoblot of downstream surrogates of KRAS signaling in NIH3T3 cells expressing FKBP*-KRASG12V; details: NIH3T3 cells expressing dTAG-KRASG12V; 1 μM, 24 hours
Procedure: (§1) FIG. 19 is an immunoblot of NIH3T3 cells expressing KRASG12V allele fused to FKBP* in the N-terminus or C-terminus. Cells were treated with 500 nM dFKBP7 for the indicated time. Cells were harvested and immunoblotted to measure degradation of FKBP*-KRASG12V and downstream surrogates of KRAS signaling (e.g. pMEK and pAKT).
(§2) FIG. 20 is an immunoblot of NIH3T3 cells expressing FKBP* fused to the N-terminus of KRASG12V treated with 1 uM of the indicated dFKBP heterobifunctional compounds for 24 hours. Cells were harvested and immunoblotted to measure degradation of FKBP*-KRASG12V and downstream surrogates of KRAS signaling (e.g. pMEK and pAKT).
as §2, with “21” for “20”, “with” for “with 1 uM of”, “concentrations of dFKBP13” for “dFKBP heterobifunctional compounds”
FIG. 22 is an immunoblot of NIH3T3 cells expressing FKBP* fused to the N-terminus of KRASG12V treated with 1 uM dFKBP13 for the indicated time. Cells were harvested and immunoblotted to measure degradation of FKBP*-KRASG12V and downstream surrogates of KRAS signaling (e.g. pMEK and pAKT).
Cells were treated with 500 nM dFKBP7 for the indicated time. […]

FKBP*-KRASG12V = assay: Immunoblot of FKBP*-KRASG12V degradation in NIH3T3 cells; details: NIH3T3 cells expressing dTAG-KRASG12V; 1 μM, 24 hours
Procedure: as §1
(§3) Cells were harvested and immunoblotted to measure degradation of FKBP*-KRASG12V and downstream surrogates of KRAS signaling (e.g. pMEK and pAKT).
as §3, §3
Cells were treated with 500 nM dFKBP7 for the indicated time. Cells were harvested and immunoblotted to measure degradation of FKBP*-KRAS and downstream surrogates of KRAS signaling (e.g. pMEK and pAKT).
(§4) Cells were harvested and immunoblotted to measure degradation of FKBP*-KRAS and downstream surrogates of KRAS signaling (e.g. pMEK and pAKT).
as §4
To evaluate the kinetic control of targeted degradation of dTAG-KRAS, dFKBP13 was administered by increased duration. […]

Structure (SMILES) | Effect of pretreatment on dFKBP13-induced degradation of HA-tagged FKBP* (FKBP*) | Inhibition of downstream signaling (pMEK, pAKT) [1] | Degradation of FKBP*-KRAS (FKBP*-KRASG12V)
Nc1cccc2c1CN(C1CCC(=O)NC1=O)C2=O (centres unmarked) [Lenalidomide] | abolished dFKBP13-dependent FKBP* degradation |  | 
NS(=O)(=O)OC[C@@H]1C[C@@H](n2ccc3c(N[C@H]4CCc5ccccc54)ncnc32)C[C@@H]1O [MLN4924] | rescued HA-tagged FKBP* |  | 
CC(C)C[C@H](NC(=O)[C@H](CCc1ccccc1)NC(=O)CN1CCOCC1)C(=O)N[C@@H](Cc1ccccc1)C(=O)N[C@@H](CC(C)C)C(=O)[C@@]1(C)CO1 [Carfilzomib] | rescued |  | 
CC[C@H](C(=O)N1CCCC[C@H]1C(=O)O[C@H](CCc1ccc(OC)c(OC)c1)c1cccc(OCC(=O)NCCCCCCCCNC(=O)COc2cccc3c2C(=O)N(C2CCC(=O)NC2=O)C3=O)c1)c1cc(OC)c(OC)c(OC)c1 (some centres unmarked) [dFKBP9] |  | inhibition of downstream signaling | potent degradation of FKBP*-KRAS
